Read-outs that look alike come from different tables or passages of the source. Marks after values point to notes of the source that are not given here.
Key:
R3327AT prostate tumor [1] = assay: R3327AT prostate tumor model, photodynamic therapy with 659 YAG or 660 Dye laser (Example 3); type: in vivo, male Copenhagen rats; settings: 1.5 mg/kg
Protocol: The R3327AT prostate tumor model was used in male Copenhagen rats which were injected with 1.5 mg/kg body wt. of SnET2 (Tin Ethyl Etiopurpurin Emulsion, PDT Pharmaceuticals). Each rat had one flank tumor (R3327AT). After two weeks, the tumors ranged from 1.0 to 1.6 cm in length. Twenty four hours (+/−2 hrs.) after SnET2 injection the tumor area received photodynamic therapy using either a 659 YAG or 660 Dye laser fiber optically coupled to a 3-way fiber splitter.
Tumor temperatures were monitored using a 23 gge. hypodermic probe (YSI) placed percutaneously beneath the treated tumor. If needed, the tumors were cooled by a jet of cool air. Tumor diameters were measured and recorded three times per week.
Tumor growth was monitored by calculating volumes from the recorded measurements of tumor width, height and length. The rate of growth is presented as the number of days required for an individual tumor to reach 2, 5 or 10 times initial volume. This method of analysis of tumor growth accounts for variations due to differing initial tumor volume (Gibson and Hilf, Cancer Research, 1990). […] Only at the 200 Joule fluence level was there any significant difference between the YAG and Dye lasers in producing tumor growth delay.

prostatic tissue = assay: Transurethral photodynamic therapy of the prostate
Protocol: (§1) Animals: Adult mongrel dogs were used in all experiments. Dogs were housed 1/cage and given water and canine chow (Purina Chow, Ralston Purina Corp.) ad libitum.
(§2) Photosensitive composition: The photosensitizer, tin ethyl etiopurpurin was used. The photosensitizer was administered in anesthetized (xylazine/ketamine) dogs as an emulsion via antecubital vein 24 hours prior to light treatment.
Light source and delivery: An LTI 660 dye laser (PDT Systems, Santa Barbara, Calif.) pumped by a KTP/YAG laser (Laserscope, San Jose, Calif.), was used as a light source. Laser light was delivered to the prostate via a 400 micron optical fiber fitted with a 2.0 cm flexible cylindrical diffuser tip (PDT Systems, Inc., Santa Barbara, Calif.).
Tissue Preparation: On removal, the prostates were photographed and then fixed in a 10% buffered formalin solution. After fixation, tissue was sectioned at 5u intervals and stained with H & E. Sections of the urinary bladder were removed and prepared in a similar manner.
Prostate treatment: The animals were injected with 1.0 mg/kg of the photosensitizer. Twenty-four hours after photosensitizer administration the animals were anesthetized with intravenous sodium barbiturate. The animals were intubated and maintained on a respirator during light treatment. They were treated in the dorsolithotomy position. The 2 cm. diffusing tip of the laser fiber was localized in the prostatic urethra under transrectal ultrasound guidance. A Bruel and Kreuger 7.0 megahertz ultrasound scanner with a transrectal probe was used. The laser fiber was placed within a transparent 10F Stamey catheter (TFX Medical, Duluth, Ga.) which was used as a laser fiber carrier. The tip of the catheter was positioned immediately outside the bladder neck. Once positioned, the prostate was treated with 300 (260 mW/cm^2) joules of laser light. The animals were then recovered and returned to their cages, Indwelling catheters were not used after treatment.

[2] = 1.0 mg/kg, 24 hours after injection
Protocol: as §1, §2
Photosensitizer extraction: The animals were injected with 1.0 mg/kg of the photosensitizer. Twenty-four hours later, prostate and other tissues were removed from euthanized animals. Tissue samples were removed from the periurethral prostate and the more peripheral regions. Additionally, the mucosa of the urethra was dissected and its photosensitizer content determined. Bladder mucosa and muscularis were also removed. Tissue was weighed and homogenized with a biohomogenizer (Biospec Products, Inc., Bartleville, Okla.) in 3% acetic acid. After homogenization, a 3:1 ethyl acetate:glacial acetic acid mixture was added and mixed vigorously. The sample was then frozen at −20° C. for at least two hours after which it was thawed and saturated sodium acetate added. The ethyl acetate layer, containing the photosensitizer, was removed and its concentration determined using absorbance spectrophotometry (Response II spectrophotomer, Gilford, Oberlin, Ohio).

R3327AT prostate tumor [3] = assay: R3327AT prostate tumor model, photodynamic therapy, tumor growth delay (Example 2); type: in vivo, male Copenhagen rats; settings: drug dose 1.5 mg/kg
Protocol: The R3327AT prostate tumor model was used in male Copenhagen rats which were injected with 1.5 mg/kg body wt. of SnET2 (tin ethyl etiopurpurin Emulsion, (0.94 mg/ml) PDT Pharmaceuticals). Each rat had one flank tumor (R3327AT). After two weeks, the tumors ranged from 1.0 to 1.6 cm in length. Twenty four hours after TEP injection, the tumor area received photodynamic therapy with a light source of a KTP pumped 660 dye laser (PDT Systems). The KTP/660 dye laser was tuned to 660 nm; power density: 200 mw/cm^2; light dose: 0, 200, 300 and 400 Joules. Tumor temperatures were monitored using a 23 gge. hypodermic probe (YSI) placed percutaneously beneath the treated tumor. If needed, the tumors were cooled by a jet of cool air. Tumors were measured and recorded three times per week.
The linear regression of tumor growth (represented as tumor volume) for each rat was plotted. The number of days it took the treated tumors to reach their initial tumor volume at the time of treatment was determined by the intercept with a horizontal line drawn at the mean initial tumor volume for all groups. The mean number of days for each light/drug dose group to reach its initial tumor size is recorded in Table 3 below.

[4] = Mean +/- SD, listed as Photosensitizer, 1 mg/kg

CCOC(=O)C1=Cc2c3nc(cc4nc(cc5[n-]c(cc6[n-]c2c(C)c6CC)c(C)c5CC)C(C)=C4CC)[C@@H](C)[C@]13CC.[Cl-].[Cl-].[Sn] (racemic) [SnET2, tin ethyl etiopurpurin]
Difference between 660 Dye and 659 YAG lasers as light source for photodynamic therapy (R3327AT prostate tumor [1]; 200 mw/cm^2, significant difference only at the 200 Joule fluence level): no consistent significant difference | Tumor growth delay from initial to 2 times initial volume as compared to controls (R3327AT prostate tumor [1]; 659 YAG and 660 Dye lasers, 200-400 Joules, especially at the 400 Joule level): effective in delaying tumor growth | Prostate effects of photosensitizer and light (prostatic tissue; 1.0 mg/kg, light 24 hours later, 300 joules (260 mW/cm^2), transurethral): showed evidence of a photodynamic effect | Urethral mucosa (prostatic tissue; 3 weeks following treatment, 1.0 mg/kg, 300 joules): The urethral mucosa had regenerated | Urethral epithelium (prostatic tissue; 48 hours following photodynamic therapy, 1.0 mg/kg, 300 joules): loss of the urethral epithelium | Animal recovery: voiding (prostatic tissue; after photodynamic therapy, no indwelling catheter, 1.0 mg/kg, 300 joules): All animals were able to void spontaneously | Animal recovery: hematuria (prostatic tissue; after photodynamic therapy, 1.0 mg/kg, 300 joules): Two of the animals developed gross hematuria | Changes in the bladder (prostatic tissue; after photodynamic therapy, believed due to movement or inaccurate placement of the light guide): In two of the animals there were extensive changes in the bladder | Histology of prostate (prostatic tissue; prostate removed 3 weeks following treatment, 1.0 mg/kg, 300 joules): glandular atrophy and replacement with fibrous tissue | Histologic examination of prostate around the urethra (prostatic tissue; prostates removed 48 hours following photodynamic therapy, 1.0 mg/kg, 300 joules): extensive hemmorhagic necrosis | Tissue levels of photosensitizer compared with plasma levels [2]: significantly greater than plasma levels | Photosensitizer concentration, Bladder ([2]; Dog 1): 0.2 µg/g | Photosensitizer concentration, Prostate ([2]; Dog 1): 2.1 * ug/g | Photosensitizer concentration, Urethra ([2]; Dog 1): 0.5 µg/g | Photosensitizer concentration, Bladder ([2]; Dog 2): 0.2 µg/g | Photosensitizer concentration, Kidney ([2]; Dog 2): 2.5 µg/g | Photosensitizer concentration, Liver ([2]; Dog 2): 6.7 µg/g | Photosensitizer concentration, Muscle ([2]; Dog 2): 0.3 µg/g | Photosensitizer concentration, Plasma (24-hr) ([2]; Dog 2): 0.1 * * ug/ml | Photosensitizer concentration, Prostate ([2]; Dog 2): 0.8 µg/g | Photosensitizer concentration, Spleen ([2]; Dog 2): 0.8 µg/g | Photosensitizer concentration, Urethra ([2]; Dog 2): 0.3 µg/g | Photosensitizer concentration, Bladder ([2]; Dog 3): 0.2 µg/g | Photosensitizer concentration, Kidney ([2]; Dog 3): 2.9 µg/g | Photosensitizer concentration, Liver ([2]; Dog 3): 6.1 µg/g | Photosensitizer concentration, Muscle ([2]; Dog 3): 0.2 µg/g | Photosensitizer concentration, Plasma (24-hr) ([2]; Dog 3): 0.1 µg/mL | Photosensitizer concentration, Prostate ([2]; Dog 3): 0.9 µg/g | Photosensitizer concentration, Spleen ([2]; Dog 3): 0.8 µg/g | Photosensitizer concentration, Urethra ([2]; Dog 3): 0.2 µg/g | Photosensitizer concentration, Kidney ([2]; Mean +/- SD): 2.7 ± 0.2 µg/g | Photosensitizer concentration, Liver ([2]; Mean +/- SD): 6.7 ± 0.2 µg/g | Photosensitizer concentration, Muscle ([2]; Mean +/- SD): 0.3 ± 0.1 µg/g | Photosensitizer concentration, Plasma (24-hr) ([2]; Mean +/- SD): 0.1 ± 0 µg/mL | Photosensitizer concentration, Spleen ([2]; Mean +/- SD): 0.8 ± 0 µg/g | Photosensitizer concentration, Bladder [2, 4]: 0.2 ± 0 µg/g | Photosensitizer concentration, Prostate [2, 4]: 1.3 ± 0.6 µg/g | Photosensitizer concentration, Urethra [2, 4]: 0.3 ± 0.1 µg/g | # of Days of Growth Delay (R3327AT prostate tumor [3]; Group II: light dose 0 Joules): 0 days | # of Days of Growth Delay (R3327AT prostate tumor [3]; Group III: light dose 200 Joules, 660 nm, 200 mw/cm^2): 6.2 ± 1.2 days | # of Days of Growth Delay (R3327AT prostate tumor [3]; Group IV: light dose 300 Joules, 660 nm, 200 mw/cm^2): 5.8 ± 0.8 days | # of Days of Growth Delay (R3327AT prostate tumor [3]; Group V: light dose 400 Joules, 660 nm, 200 mw/cm^2): 11.4 ± 3.7 days

Source: patent publication US20020193850A1, “Use of photodynamic therapy to treat prostatic tissue” (priority 1993, published 2002)
